Patent US20250041279A1, “THERAPEUTIC MEDICINE FOR HEART DISEASE OR SKELETAL MUSCLE DISEASE” (SHIONOGI & CO., LTD., priority 2021, published 2025)
Read-outs that look alike come from different tables or passages of the source.

Experiments:
recombinant human ACC1 = recombinant human ACC1 (Homo sapiens (Human), UniProt Q13085); experiment: Measurement of inhibitory activity of human ACC1 (MALDI-TOF MS); assay type: biochemical; conditions: read-out: IC50 hACC1
Excerpt: A cDNA encoding human ACC1 protein (1 amino acid residue to 2346 amino acid residues from the N-terminus) was cloned from a human liver cDNA library (BioChain Institute Inc.), myc tag and His-tag sequences were introduced at the 3′ end, and then inserted into pIEXBAC3 (Novagen). A recombinant baculovirus was produced in accordance with the protocol for Flash BACGOLD (Oxford Expression Technologies Ltd.), and Sf-9 cells were infected therewith to express human ACC1 protein. The recovered cells were crushed, filtered through a filter, and then subjected to Ni affinity chromatography and anion exchange chromatography. Fractions containing human ACC1 protein were collected to obtain recombinant human ACC1.
The recombinant human ACC1 and the recombinant human ACC2 obtained from the above Preparation Examples were preincubated in an assay buffer (50 mM HEPES-KOH (pH 7.4), 10 mM magnesium chloride, 6 to 10 mM potassium citrate, 4 mM glutathione reduced form, and 1.5 mg/ml bovine serum albumin) for 1 hour. Then, 5 μL of the pre-incubated enzyme solution and 5 μL of a substrate solution (50 mM HEPES-KOH (pH 7.4), 1 mM ATP, 0.8 mM acetyl-CoA, and 25 to 50 mM potassium bicarbonate) were added to a 384-well microplate into which 0.2 μl of each of solutions of the compound of the present invention (DMSO had been dispensed, and the mixture was centrifuged and shaken, and then incubated in a wet box at room temperature for 1 to 3 hours. After incubation, the enzymatic reaction was stopped by addition of EDTA, and then the sample was co-crystallized with an α-cyano-4-hydroxy cinnamic acid (CHCA) matrix on a MALDI target plate, and measurement was performed in a reflector negative mode using a matrix-assisted laser desorption ionization-time-of-flight mass spectrometer (MALDI-TOF MS). Deprotonated ions of the substrate acetyl-CoA (AcCoA) and the reaction product malonyl-CoA (MalCoA) were detected, and the intensity of each signal was used to calculate a conversion rate to malonyl-CoA or succinyl-CoA, i.e., intensity of [MalCoA-H]—/(intensity of [MalCoA-H]-+intensity of [AcCoA.H].). […] The potassium citrate concentration in the assay buffer, the potassium bicarbonate concentration in the substrate solution, and the incubation time were adjusted within the above concentrations or reaction times for each lot of the enzyme to be used.

[1] = Metabolic stability test, human liver microsomes; assay type: in vitro ADME; conditions: 37° C., 30 minutes, NADPH
Method: Commercially available pooled human liver microsomes were reacted with the compound of the present invention for a given time. A residual rate was calculated by comparison between the reacted sample and the unreacted sample to evaluate a degree at which the compound of the present invention is metabolized in the liver.
The compound was reacted at 37° C. for 0 minutes or 30 minutes in the presence of 1 mmol/L NADPH in 0.2 mL of a buffer (50 mmol/L Tris-HCl pH 7.4, 150 mmol/L potassium chloride, and 10 mmol/L magnesium chloride) containing 0.5 mg protein/mL of the human liver microsomes (oxidative reaction). After the reaction, 50 μL of the reaction solution was added to 100 μL of a solution of methanol/acetonitrile=1/1 (v/v) and mixed, and the mixture was centrifuged at 3000 rpm for 15 minutes. The compound of the present invention in the centrifuged supernatant was quantified by LC/MS/MS or solid-phase extraction (SPE)/MS. The amount of the compound of the present invention remained after the reaction was calculated with the amount of the compound at 0 minutes of the reaction defined as 100%.

[2] = Metabolic stability test, rat; assay type: in vitro ADME; conditions: 30 minutes
recombinant human ACC2 = recombinant human ACC2 (Homo sapiens (Human), UniProt O00763); experiment: Measurement of inhibitory activity of human ACC2 (MALDI-TOF MS); assay type: biochemical; conditions: read-out: IC50 hACC2
Excerpt: A cDNA encoding human ACC2 protein (27 amino acid residues to 2458 amino acid residues from the N-terminus) was cloned from a human kidney cDNA library (Clontech Laboratories, Inc.), a His-tag sequence was introduced at the 5′ end, and then inserted into pFastBac1 (Invitrogen). A recombinant baculovirus was produced in accordance with the protocol for a Bac-to-Bac baculovirus expression system (Invitrogen), and Sf-9 cells were infected therewith to express human ACC2 protein. The recovered cells were crushed, filtered through a filter, and then subjected to Ni affinity chromatography and anion exchange chromatography. Fractions containing human ACC2 protein were collected to obtain recombinant human ACC2.
The recombinant human ACC1 and the recombinant human ACC2 obtained from the above Preparation Examples were preincubated in an assay buffer (50 mM HEPES-KOH (pH 7.4), 10 mM magnesium chloride, 6 to 10 mM potassium citrate, 4 mM glutathione reduced form, and 1.5 mg/ml bovine serum albumin) for 1 hour. […] Deprotonated ions of the substrate acetyl-CoA (AcCoA) and the reaction product malonyl-CoA (MalCoA) were detected, and the intensity of each signal was used to calculate a conversion rate to malonyl-CoA or succinyl-CoA, i.e., intensity of [MalCoA-H]—/(intensity of [MalCoA-H]-+intensity of [AcCoA.H].). […] The potassium citrate concentration in the assay buffer, the potassium bicarbonate concentration in the substrate solution, and the incubation time were adjusted within the above concentrations or reaction times for each lot of the enzyme to be used.

NAFLD patients = conditions: cited from earlier work
healthy subjects = conditions: repeated administration to healthy subjects; cited from earlier work

Sequence of recombinant human ACC2 (O00763 27-2458): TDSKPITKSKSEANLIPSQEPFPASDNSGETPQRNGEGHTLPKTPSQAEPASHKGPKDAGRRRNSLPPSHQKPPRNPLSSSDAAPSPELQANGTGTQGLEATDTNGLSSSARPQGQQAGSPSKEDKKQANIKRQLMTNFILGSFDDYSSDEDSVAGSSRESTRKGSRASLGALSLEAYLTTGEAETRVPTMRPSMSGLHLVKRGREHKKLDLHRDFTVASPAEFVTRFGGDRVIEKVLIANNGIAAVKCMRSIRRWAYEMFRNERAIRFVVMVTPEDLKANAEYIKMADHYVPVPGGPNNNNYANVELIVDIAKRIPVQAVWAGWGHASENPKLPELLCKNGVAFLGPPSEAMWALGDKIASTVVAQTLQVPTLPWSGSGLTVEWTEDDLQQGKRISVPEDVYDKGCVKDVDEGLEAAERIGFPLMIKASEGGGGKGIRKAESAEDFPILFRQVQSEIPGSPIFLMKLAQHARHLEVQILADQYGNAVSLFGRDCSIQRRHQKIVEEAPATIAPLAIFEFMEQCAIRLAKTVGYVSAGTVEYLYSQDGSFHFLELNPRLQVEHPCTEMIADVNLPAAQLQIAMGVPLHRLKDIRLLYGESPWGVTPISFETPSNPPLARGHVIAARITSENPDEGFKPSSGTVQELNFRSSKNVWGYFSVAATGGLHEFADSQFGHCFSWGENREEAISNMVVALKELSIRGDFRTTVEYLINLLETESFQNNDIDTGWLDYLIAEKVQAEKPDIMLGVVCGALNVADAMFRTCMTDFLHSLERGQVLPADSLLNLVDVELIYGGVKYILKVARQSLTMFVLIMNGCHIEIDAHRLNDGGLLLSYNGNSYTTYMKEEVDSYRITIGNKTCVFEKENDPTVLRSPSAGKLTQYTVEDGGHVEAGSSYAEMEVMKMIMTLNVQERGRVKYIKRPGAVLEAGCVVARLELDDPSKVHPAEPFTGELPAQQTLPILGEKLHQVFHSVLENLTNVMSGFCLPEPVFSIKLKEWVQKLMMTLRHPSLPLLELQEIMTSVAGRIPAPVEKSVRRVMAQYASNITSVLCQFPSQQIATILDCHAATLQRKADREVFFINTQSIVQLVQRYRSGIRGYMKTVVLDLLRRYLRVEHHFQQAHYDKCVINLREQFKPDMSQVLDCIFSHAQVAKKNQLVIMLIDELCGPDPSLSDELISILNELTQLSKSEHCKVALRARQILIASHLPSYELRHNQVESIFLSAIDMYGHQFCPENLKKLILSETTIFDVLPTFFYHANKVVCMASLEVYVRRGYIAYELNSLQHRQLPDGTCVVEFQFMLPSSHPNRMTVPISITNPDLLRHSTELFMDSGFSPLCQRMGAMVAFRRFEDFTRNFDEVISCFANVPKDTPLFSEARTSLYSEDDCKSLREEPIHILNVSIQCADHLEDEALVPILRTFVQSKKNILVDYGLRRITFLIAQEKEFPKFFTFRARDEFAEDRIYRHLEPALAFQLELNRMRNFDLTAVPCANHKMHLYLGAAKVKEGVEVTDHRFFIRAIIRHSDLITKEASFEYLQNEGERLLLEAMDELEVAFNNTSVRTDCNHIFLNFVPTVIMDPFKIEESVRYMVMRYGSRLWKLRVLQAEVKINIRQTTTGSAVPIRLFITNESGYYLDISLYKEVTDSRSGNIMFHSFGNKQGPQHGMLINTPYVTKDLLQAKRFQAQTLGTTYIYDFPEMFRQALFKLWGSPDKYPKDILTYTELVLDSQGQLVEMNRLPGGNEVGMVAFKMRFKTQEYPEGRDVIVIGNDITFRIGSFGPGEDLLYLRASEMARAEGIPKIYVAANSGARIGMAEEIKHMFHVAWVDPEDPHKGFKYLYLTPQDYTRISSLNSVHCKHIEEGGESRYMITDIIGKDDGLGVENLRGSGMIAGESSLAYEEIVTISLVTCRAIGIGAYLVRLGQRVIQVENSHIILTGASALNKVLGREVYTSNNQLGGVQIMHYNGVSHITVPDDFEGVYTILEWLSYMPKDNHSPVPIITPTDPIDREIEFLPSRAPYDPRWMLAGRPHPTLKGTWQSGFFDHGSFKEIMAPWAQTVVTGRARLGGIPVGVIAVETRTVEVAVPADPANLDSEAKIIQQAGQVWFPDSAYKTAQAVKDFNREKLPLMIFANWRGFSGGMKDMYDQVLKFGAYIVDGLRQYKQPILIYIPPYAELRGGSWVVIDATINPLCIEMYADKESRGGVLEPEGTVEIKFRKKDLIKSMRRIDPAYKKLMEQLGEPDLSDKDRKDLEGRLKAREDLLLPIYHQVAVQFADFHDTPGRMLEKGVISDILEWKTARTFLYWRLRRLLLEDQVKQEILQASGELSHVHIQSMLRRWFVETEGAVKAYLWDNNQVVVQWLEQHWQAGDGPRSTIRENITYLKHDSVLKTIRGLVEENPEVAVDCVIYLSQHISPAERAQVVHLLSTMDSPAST

| SMILES | IC50 (recombinant human ACC1) [nM] | Remaining amount of compound, Human [1] [%] | Remaining amount of compound, Rat [2] [%] | IC50 (recombinant human ACC2) [nM] | Plasma triglyceride concentration (NAFLD patients) | platelet concentration (healthy subjects) | Plasma triglyceride concentration (NAFLD patients; phase II study over 12 weeks) |
| --- | --- | --- | --- | --- | --- | --- | --- |
| CC(=O)N[C@@H](C)COC1CCC(Oc2nc3c(F)cc(OC4CCC4)cc3n2C)CC1 (stereo partly drawn) [Compound I-1] | 320 |  |  |  |  |  |  |
| CC(=O)N[C@@H](C)COC1CCC(Oc2nc3c(Cl)cc(OC4CC4)cc3n2C)CC1 (stereo partly drawn) [Compound I-3] | 2800 | 80.3 | 82.6 |  |  |  |  |
| CC(=O)N[C@@H](CF)COC1CCC(Oc2nc3c(F)cc(OC4CC4)cc3n2C)CC1 (stereo partly drawn) [Compound I-4] | 2700 | 93.4 | 87.3 | 4.7 |  |  |  |
| Cn1c(OC2CCC(OC[C@H](CF)NC(N)=O)CC2)nc2c(F)cc(OC3CC3)cc21 (stereo partly drawn) [Compound I-5] | 6900 | 98.9 | 83.4 | 8.9 |  |  |  |
| CC(=O)N[C@@H](C)C(F)(F)C[C@H]1CCC(Oc2nc3c(F)cc(OCC(F)F)c(F)c3n2C)CO1 (stereo partly drawn) [Compound I-7] | 25000 | 89.1 | 74.7 | 180 |  |  |  |
| C[C@@H](COC1CCC(Oc2nc3c(Cl)cc(OC4CC4)cc3n2C)CC1)NC(N)=O (stereo partly drawn) [Compound I-8] | 6200 | 83.6 | 85.4 | 17 |  |  |  |
| CC(=O)N[C@@H](C)CC(F)(F)[C@@H]1CCC(Oc2nc3c(F)cc(OCC(F)F)c(F)c3n2C)CO1 (stereo partly drawn) [Compound I-10] | > 100000 |  |  | 89 |  |  |  |
| C[C@@H](CCC1OCC(Oc2nc3c(F)cc(OCC(F)F)c(F)c3n2C)CO1)NC(N)=O (stereo partly drawn) [Compound I-11] | 7000 | 95.8 | 94.5 | 9.6 |  |  |  |
| CC(=O)N[C@@H](C)CCC1CCC(Oc2nc3c(F)cc(OC4CC4)cc3n2C)CC1 (stereo partly drawn) [Compound I-15] | 1700 | 80.2 | 76.2 | 3.8 |  |  |  |
| COc1cc(C(=O)N2CCC3(CC2)CC(=O)c2cc(-c4cncc(C(=O)O)c4)ccc2O3)cc2c1c(C)cn2C1CC1 [MK-4074] |  |  |  |  | elevated |  |  |
| Cc1nc2ccc(C(=O)N3CCC4(CC3)CC(=O)c3c(cnn3C(C)C)C4)cc2[nH]1 [PF-05175157] |  |  |  |  |  | reduced |  |
| COc1ccccc1[C@H](Cn1c(=O)n(C(C)(C)C(=O)O)c(=O)c2c(C)c(-c3ncco3)sc21)OC1CCOCC1 [firsocostat] |  |  |  |  |  |  | elevated |
